Earlier results on one compound are cited in patent US11566030B2, “Substituted 2,6-dihydropyrrolo[3,4-c]pyrazoles as pyruvate kinase activators” (priority 2021, dated 2023).

The test system of the data set is mouse model of beta-thalassemia. The note with it: cited from earlier work.

Take `O=C(c1ccc(NS(=O)(=O)c2cccc3cccnc23)cc1)N1CCN(CC2CC2)CC1` [AG-348, Mitapivat]: the ATP levels result is “increased”, the PK activity entry is listed as “increased” and the RBC parameters entry is given as “improved”.
